Patent publication EP4653001A1, “TREATMENT, DIAGNOSIS AND/OR PROGNOSIS OF MITOCHONDRIAL DISEASES” (Universidad Autónoma de Madrid, priority 2024, dated 2025)

Legend:
primary neurons = test: Intracellular calcium mobilization (excitability) assay; format: cell-based, mouse; conditions: CI inhibition
Experimental: Neuronal functionality was measured by the Rhod-4 No Wash Calcium Assay Kit (Abcam, Cat No. ab112157), following the manufacturer's instructions for intracellular calcium assay. In short, culture medium was removed, and Rhod-4 dye containing buffer was gently added to cells, followed by incubation at 37 degrees for 30 min followed by 20 min at room temperature. For imaging and quantification of intracellular calcium mobilization, confocal images were acquired using a Zeiss LSM800 confocal microscope (Jena, Alemania) enabled with a 10X objective. Time lapse images of the confocal scan were acquired every 0.5 second over a ten-minute period. Neuronal cultures were treated with 100mM KCl (final concentration) added after the first 4 minutes to establish a baseline and observe the steady- state changes in calcium mobilization in response to the treatment. Acquired confocal images were post-processed using the free and open-source Fiji image processing software. Fluorescent intensity changes were quantified using fixed parameters across the entire set of captured images.

mouse cortical neurons = test: PPP activity measurement in cortical neurons; format: cell-based
Experimental: Primary cultures of C57BL/6 mouse cortical neurons were prepared from embryos between embryonic days 16.5 and 17.5 and seeded onto pre-treated plates coated with Poly-L-lysine hydrobromide (500 µg/ml). We used Neurobasal medium without D-glucose and sodium pyruvate (ThermoFisher) to modulate D-glucose levels, depending on the experiment (2.5 mM, 5 mM, or 25 mM).
The determination of pentose-phosphate pathway (PPP) activity was conducted by assessing the difference between 14CO2 production from 1-14C-glucose, which decarboxylates through the 6-phosphogluconate dehydrogenase-catalyzed reaction, and that of 6-^14C-glucose, which decarboxylates through the tricarboxylic acid cycle.
Increased lactate secretion is considered a good indicator of enhanced glycolytic rates, which is a common feature of ETC-inhibited cells as they switch from OXPHOS to glycolysis to maintain ATP levels. […] We culture 143B cells in the presence of Piericidin for 24 h and PPP activity and lactate release, as a proxy of glycolysis, were measured. As expected, lactate detection in the media was higher in CI-inhibited cells. […] Next, we wonder if in this context, glucose can be overused by glycolysis and therefore diverted away from the PPP. Diseases associated with impaired mitochondrial function negatively impact high energy demanding tissues such as the brain. As such, neurons that are highly sensitive to ETC inhibition also rely strongly on glucose metabolism. Thus, we used mouse cortical neurons to determine the rates of glycolysis and PPP as glucose levels become limiting. Control and Piericidin treated neurons where cultured in media containing supraphysiological (25 mM), physiological (5 mM) or subphysiological concentrations of glucose (2,5 mM). […] Decreased PPP activity under low glucose (2,5 mM) correlated with a rapid decline in NADPH/NADP+ levels in CI-inhibited cells. Conversely, glucose availability had no effect on ATP levels at this timepoint.

astrocytes = test: NADPH/NADP+ levels in astrocytes; format: cell-based, mouse
Experimental: Primary cultures of C57BL/6 mouse cortical astrocytes were derived from postnatal day 2-3 pups. They were plated on pre-treated dishes coated with Poly-L-lysine (100 µg/ml) and cultured in DMEM/F-12 (ThermoFisher) supplemented with 15% FBS and 1% penicillin/streptomycin (P/S). After 24 hours of plating, the medium was switched to 10% FBS.
The NADP/NADP-Glo™ Assay (Promega) was employed to assess the NADP/NADPH ratio in cultured cells, following the manufacturer's instructions (Technical Bulletin Number TM400). This bioluminescent assay can detect both total oxidized and reduced nicotinamide adenine dinucleotide phosphates (NADP+ and NADPH) and determine their ratio.
Cells were cultured in 24-well plates (Falcon®) at varying concentrations depending on the cell type and the specific experiment. After removing the media, we added 100 µl of PBS 1X per well and lysed the cells by introducing 100 µl of a base solution with 1% DTAB (1:1 ratio). To adapt the volumes for a 96-well plate, we divided the 200 µl total into two parts, allocating 50 µl for measuring NADP+ and 50 µl for NADPH in separate positions on the plate, allowing us to measure both NADP and NADPH levels. The assay was then carried out as per the standard protocol. Luminescence was measured using the CLARIOstar Plus plate reader from BMG LABTECH.

143B cells = test: Stable isotope tracing with uniformly labeled 13C-glucose; format: cell-based
Experimental: 1-5.0×10^6 cells were harvested on dry ice with 1 mL pre-chilled 80% HPLC-grade methanol (Fluka Analytical). The cell mixture was incubated for 15 min on dry ice prior to centrifugation at 18,000 × g for 10 min at 4°C. The supernatant was retained, and the remaining cell pellet was resuspended in 800 µL chilled 80% methanol and centrifuged. Supernatant was combined with the previous retention and was lyophilized using a SpeedVac (Thermo Fisher). Lyophilized samples were resuspended in 20 µL ultrapure water and subjected to metabolomics profiling using the AB/SCIEX 5500 QTRAP triple quadrupole instrument. Data analysis was performed using the GiTools software. […]
Encouraged by the beneficial effects of ME1 and because ME1-dependent NADPH production is linked to intracellular malate levels, we sought to investigate the metabolic pathways and nutrients that maintain malate production upon disruption of the ETC. It is firmly believed that in cells and tissues with defective ETC function, elevated NADH/NAD+ ratio inhibits the Pyruvate dehydrogenase complex (PDC), suppressing pyruvate entry into the mitochondria and forcing its channelling towards the Lactate Dehydrogenase (LDH) in the cytosol. […] This reaction involves addition of an unlabeled carbon by IDH2 acting in reverse relative to the canonical oxidative TCA cycle. Malate M+3 also rose more than a ~2-fold in CI-inhibited cells and was likely formed after cleavage of citrate M+5 by ATP-citrate lyase (ACLY) since this induction was blunted in ACLY KO cells. […] We hypothesized that an alternative mechanism could involve pyruvate entry into the mitochondria where it can be carboxylated to OAA by the pyruvate carboxylase (PC). […] To examine the contribution of PC to malate formation in the context of ETC dysfunction, control and PC KO cells were cultured with uniformly labeled [^13C]glucose and treated either with DMSO or Piericidin. In this labeling scheme, oxidative metabolism of glucose-derived pyruvate would give rise to TCA cycle intermediates with M+2 labeling as CO2 is removed during conversion of pyruvate to acetyl-CoA by pyruvate dehydrogenase (PDH). By contrast, carbon labels are retained if pyruvate is carboxylated by PC and would generate M+3 intermediates (Figure 3A). […] Malate and aspartate M+3/M+2 ratios, which reflect the relative contribution of PC versus PDH to metabolite labeling, were ~7-fold and ~10-fold higher respectively, in cells treated with Piericidin (Figure 3B and C). […] In this regard, it is not surprising that PC activity is favoured over PDH when the ETC is defective as it is not regulated by NADH levels.

[1] = uniformly labeled [13C]glucose, vs DMSO

With CC=C(C)C(O)C(C)C=C(C)C=CCC(C)=CCc1nc(OC)c(OC)c(O)c1C (stereo not shown) [Piericidin, Piericidin A] the excitability response (primary neurons) was “diminished”, the PPP activity (mouse cortical neurons; 5 mM glucose, did not reach statistical significance) was “trend towards reduced PPP activity” and the PPP activity (mouse cortical neurons; limited glucose availability (2,5 mM), 100 nM, 16 h) was “prominent drop”. For the same compound, the PPP activity (mouse cortical neurons; neurons cultured in 25 mM glucose, 100 nM, 16 h) was “significantly upregulation”, the “levels of NADPH” value (astrocytes; PC and ME1 knockdown astrocytes, 100nM, 96 h) was “reduced” and the NADPH levels (astrocytes; astrocytes, 100 nM, 24 h) was “did not cause any alteration”. For the same compound, the “PDH-dependent labeling of aspartate and malate” value (143B cells; control and PC KO cells) was “clearly reduced”, the “PC-mediated labeling of TCA cycle intermediates” value (143B cells; particularly aspartate and malate) was “marked induction” and the “Malate M+3/M+2 ratio, higher” value (143B cells; [1]) was ~ 7 fold. For the same compound, the “aspartate M+3/M+2 ratio, higher” value (143B cells; [1]) was ~ 10 fold.
